Results from patent US20090105202A1 (priority 2005, published 2009).
Like-named read-outs stand apart in the source and are kept apart here.

Columns and labels:
[1] = test system: HCT116 cells; format: cell-based; set-up: unit not given here
[2] = test system: HCT116 cells; conditions: read-out: IC50 (the drug concentration producing 50% inhibition of colony formation), drugs 72 hours, colonies counted after 8 days
Protocol: To test the effect of androsterone derivatives of this example, HCT116cells (colorectal carcinoma cells) were plated in 60 mm Petri dishes containing 2.7 ml of medium (modified McCoy's 5a medium containing 10% fetal bovine serum and 100 units/ml penicillin and 100 µg/ml streptomycin). The cells were incubated in a CO2 incubator at 37° C. for 5 hours for attachment to the bottom of Petri dishes. Drugs were made up fresh in medium at ten times the final concentration, and then 0.3 ml of tins stock solution was added to the 2.7 ml of medium containing 5% bovine calf serum (BCS) in the dish. The cells were then incubated with drugs for 72 hours at 37° C. At the end of incubation the drug-containing media were decanted, the dishes were rinsed with 4 ml of Hank's Balance Salt Solution (HBSS). […] The cell colonies stained with methylene blue (0.5% in ethanol) were counted using colony counter after incubation for 8 days for HCT116 cells.

SMILES | In vitro antitumor activity against HCT116 cells ([1]; 1 μM) | In vitro antitumor activity against HCT116 cells ([1]; 10 μM) | IC50 [2] | In vitro antitumor activity against HCT116 cells ([1]; 100 nM)
C[C@]12CC[C@H](OC(=O)CCC(=O)OCc3ccc4c(c3)C(=O)c3ccccc3C4=O)C[C@@H]1CC[C@@H]1[C@@H]2CC[C@]2(C)C(=O)CC[C@@H]12 [compound 991120, 1-((3β,5α)-3-Hydroxyandrostan-17-one)-4-(2-(hydroxymethyl)anthraquinone)-succinate] | 100 | 0 | – | –
CC[C@@]1(OC(=O)COc2ccc(C(=O)O[C@@H]3CC[C@@]4(C)[C@@H](CC[C@@H]5[C@@H]4CC[C@]4(C)C(=O)CC[C@@H]54)C3)cc2)C(=O)OCc2c1cc1n(c2=O)Cc2cc3ccccc3nc2-1 [compound 010216, Camptothecin-20S-O-(4-carboxyphenexyacetate) linked with androsterone] | – | – | 2.5 nM | –
CC[C@@]1(OC(=O)COc2ccc(C(=O)O[C@H]3CC[C@@]4(C)[C@@H](CC[C@@H]5[C@@H]4CC[C@]4(C)C(=O)CC[C@@H]54)C3)cc2)C(=O)OCc2c1cc1n(c2=O)Cc2cc3ccccc3nc2-1 [compound 0103021, Camptothecin-20S-O-(4-carboxyphenoxyacetate) linked with epiandrosterone] | – | – | 3.5 nM | –
CC(ON=C1c2cc([N+](=O)[O-])cc([N+](=O)[O-])c2-c2c1ccc([N+](=O)[O-])c2[N+](=O)[O-])C(=O)O[C@H]1CC[C@@]2(C)[C@@H](CC[C@@H]3[C@@H]2CC[C@]2(C)C(=O)CC[C@@H]32)C1 (stereo partly drawn) [compound 991022, (3β,5α)-3-Hydroxyandrostan-17-one (+)-2-(2,4,5,6-tetranitro-9-flourenylidene-aminooxy)proprionate] | 100 | 0 | – | –
C[C@]12CC[C@H](OC(=O)c3ccc([N+](=O)[O-])o3)C[C@@H]1CC[C@@H]1[C@@H]2CC[C@]2(C)C(=O)CC[C@@H]12 [compound 991027, (3β,5α)-3-Hydroxyandrostan-17-one 5-nitro-2-furoate] | 0 | 0 | – | 4.00
O=c1[nH]cc(F)c(=O)[nH]1 [5-FU, reference compound] | – | 17.00 | – | –
